In US5120859A, “Chimeric amino acid analogues” (dated 1992):
Starred links: 1 amine or outer side, 2 acyl side, 3 side chain; linkers in the order of their positions; H or OH if unused. Non-standard residues stand in square brackets, D forms with d. Residues, ends and D or L forms follow the SMILES beside them. Pro(trans-4-guanidino) = N=C(N)N[C@H]1CN[C@H](C(=O)O)C1; Pro(cis-4-guanidino) = NC(N)=N[C@@H]1CN[C@H](C(=O)O)C1; X4 = N=C(N)NC[C@@H]1C[C@@H](C(=O)[*:2])N([*:1])C1; X1 = N=C(N)NC[C@@H]1C[C@H](C(=O)[*:2])N([*:1])C1; X2 = N=C(N)NC[C@H]1C[C@@H](C(=O)[*:2])N([*:1])C1; X5 = N=C(N)NC[C@H]1C[C@H](C(=O)[*:2])N([*:1])C1; X3 = N=C(N)N[C@H]1C[C@H](C(=O)[*:2])N([*:1])C1

biological target: IIbIIIa receptor (Homo sapiens, UniProt P05106+P08514); test: biochemical; details: read-out: IC50 (Ratio to GRGDV IC50)
Sequence (P08514 32-1039): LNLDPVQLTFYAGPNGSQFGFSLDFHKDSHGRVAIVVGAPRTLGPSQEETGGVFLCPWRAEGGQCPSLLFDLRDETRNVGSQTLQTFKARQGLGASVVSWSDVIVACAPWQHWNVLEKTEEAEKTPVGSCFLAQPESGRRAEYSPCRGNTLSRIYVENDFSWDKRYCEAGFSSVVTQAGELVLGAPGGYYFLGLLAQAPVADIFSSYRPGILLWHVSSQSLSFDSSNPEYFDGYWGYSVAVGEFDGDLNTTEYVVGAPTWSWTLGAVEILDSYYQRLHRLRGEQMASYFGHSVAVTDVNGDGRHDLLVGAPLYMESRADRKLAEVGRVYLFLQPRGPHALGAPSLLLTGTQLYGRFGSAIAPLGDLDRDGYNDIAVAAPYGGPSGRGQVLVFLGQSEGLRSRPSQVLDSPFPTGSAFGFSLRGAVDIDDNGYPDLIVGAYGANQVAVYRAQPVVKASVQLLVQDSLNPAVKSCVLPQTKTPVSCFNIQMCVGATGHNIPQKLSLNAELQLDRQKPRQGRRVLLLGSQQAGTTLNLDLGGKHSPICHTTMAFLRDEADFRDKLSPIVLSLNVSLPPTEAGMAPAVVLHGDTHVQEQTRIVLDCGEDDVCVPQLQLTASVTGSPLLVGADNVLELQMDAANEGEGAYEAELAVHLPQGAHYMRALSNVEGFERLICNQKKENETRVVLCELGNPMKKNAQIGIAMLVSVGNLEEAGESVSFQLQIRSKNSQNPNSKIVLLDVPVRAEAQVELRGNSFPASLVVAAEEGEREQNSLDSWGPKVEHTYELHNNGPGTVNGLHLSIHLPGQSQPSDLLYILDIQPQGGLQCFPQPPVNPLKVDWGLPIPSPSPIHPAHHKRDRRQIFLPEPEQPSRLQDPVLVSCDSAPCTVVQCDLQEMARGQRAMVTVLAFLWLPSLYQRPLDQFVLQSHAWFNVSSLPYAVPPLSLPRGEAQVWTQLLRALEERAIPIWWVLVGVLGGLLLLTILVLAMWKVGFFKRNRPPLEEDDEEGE
Sequence (P05106 27-788): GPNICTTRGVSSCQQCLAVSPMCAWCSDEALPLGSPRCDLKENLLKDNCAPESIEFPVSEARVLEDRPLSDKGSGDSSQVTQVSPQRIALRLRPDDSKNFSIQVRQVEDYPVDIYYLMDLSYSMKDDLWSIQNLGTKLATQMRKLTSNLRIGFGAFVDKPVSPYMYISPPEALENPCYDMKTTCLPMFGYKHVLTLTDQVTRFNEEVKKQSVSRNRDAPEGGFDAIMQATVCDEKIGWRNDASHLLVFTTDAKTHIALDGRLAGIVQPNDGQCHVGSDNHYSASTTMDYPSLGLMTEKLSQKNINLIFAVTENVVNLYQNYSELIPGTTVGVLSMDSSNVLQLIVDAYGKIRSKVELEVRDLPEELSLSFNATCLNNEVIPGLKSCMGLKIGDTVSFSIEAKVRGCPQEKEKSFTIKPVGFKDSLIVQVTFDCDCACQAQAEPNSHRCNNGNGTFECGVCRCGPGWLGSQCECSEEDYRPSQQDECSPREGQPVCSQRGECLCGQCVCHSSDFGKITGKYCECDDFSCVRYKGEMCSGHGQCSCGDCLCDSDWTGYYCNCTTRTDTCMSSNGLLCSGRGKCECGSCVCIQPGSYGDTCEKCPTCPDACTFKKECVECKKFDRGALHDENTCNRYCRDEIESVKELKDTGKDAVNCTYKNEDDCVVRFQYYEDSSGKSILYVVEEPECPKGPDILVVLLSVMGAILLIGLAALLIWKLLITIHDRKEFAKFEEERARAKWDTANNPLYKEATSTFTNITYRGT
Protocol: Microtier plates are coated with fibrinogen (10 ug/ml) and then blocked with TACTS buffer containing 0.5% BSA. (TACTS buffer contains 20 mM Tris.HCl, pH 7.5, 0.02% sodium azide, 2 mM calcium chloride, 0.05% Tween 20, 150 mM sodium chloride.) The plate is washed with phosphate buffered saline containing 0.01% Tween 20 and a dilution of the sample to be determined added, followed by addition of solubilized IIbIIIa receptor (40 ug/ml) in TACTS, 0.5% BSA. After incubation, the plate is washed and murine monoclonal anti-platelet antibody AP3 (1 ug/ml) added. After another wash, […] IgG conjugated to horseradish peroxidase are added. A final wash is performed and developing reagent buffer (10 mg o-phenylenediamine dihydrochloride, 0.0212% hydrogen peroxide, 0.22 mM citrate, 50 mM phosphate, pH 5.0) is added and then incubated until color developed. The reaction is stopped with 1N sulfuric acid and the absorbance at 492 nm is recorded. […] The ratio represents the ratio of the IC50 of the test compound to the IC50 of the internal standard (GRGDV).

Compound | IC50
CC(C)[C@H](NC(=O)[C@H](CC(=O)O)NC(=O)CNC(=O)[C@H]1C[C@H](CNC(=N)N)CN1)C(=O)O [##STR51##] | 0.0064 µM
CC(C)[C@H](NC(=O)[C@H](CC(=O)O)NC(=O)CNC(=O)[C@@H]1C[C@H](CNC(=N)N)CN1)C(=O)O [##STR52##] | 0.01 µM
CC(C)[C@H](NC(=O)[C@H](CC(=O)O)NC(=O)CNC(=O)[C@@H]1C[C@@H](CNC(=N)N)CN1C(=O)CN)C(=O)O [##STR53##] (H-G[X4]GDV-OH) | 0.03 µM
CC(C)[C@H](NC(=O)[C@H](CC(=O)O)NC(=O)CNC(=O)[C@H]1C[C@H](NC(=N)N)CN1C(=O)CN)C(=O)O [##STR54##] (H-G[X3]GDV-OH) | 0.226 µM
CC(C)[C@H](NC(=O)[C@H](CC(=O)O)NC(=O)CNC(=O)[C@@H]1C[C@H](NC(=N)N)CN1C(=O)CN)C(=O)O [##STR55##] (H-G[Pro(cis-4-guanidino)]GDV-OH) | 0.565 µM
CC(C)[C@H](NC(=O)[C@H](CC(=O)O)NC(=O)CNC(=O)[C@H]1C[C@H](CNC(=N)N)CN1C(=O)CN)C(=O)O [##STR56##] (H-G[X5]GDV-OH) | 0.037 µM
CC(C)[C@H](NC(=O)[C@H](CC(=O)O)NC(=O)CNC(=O)[C@H]1C[C@@H](CNC(=N)N)CN1C(=O)CN)C(=O)O [##STR57##] (H-G[X1]GDV-OH) | 0.025 µM
CC(C)[C@H](NC(=O)[C@H](CC(=O)O)NC(=O)CNC(=O)[C@@H]1C[C@H](CNC(=N)N)CN1C(=O)CN)C(=O)O [##STR58##] (H-G[X2]GDV-OH) | 0.101 µM
CC(C)[C@H](NC(=O)[C@H](CC(=O)O)NC(=O)CNC(=O)[C@@H]1C[C@H](NC(=N)N)CN1)C(=O)O [##STR59##] (H-[Pro(cis-4-guanidino)]GDV-OH) | 0.155 µM
CC(C)[C@H](NC(=O)[C@H](CC(=O)O)NC(=O)CNC(=O)[C@@H]1C[C@@H](NC(=N)N)CN1C(=O)CN)C(=O)O [##STR60##] (H-G[Pro(trans-4-guanidino)]GDV-OH) | 1.7 µM
